Experimental data published in ChEMBL document CHEMBL1148972, “Isomalabaricane-type compounds from the marine sponge Rhabdastrella aff. distincta” (J Nat Prod, 2004).
≈ marks a conversion by molar mass, not a printed value.

Legend:
Type in all cases: functional, cell-based
BGC-823 = test: Cytotoxicity against human BGC823 cells after 48 hrs by MTT assay; settings: BGC-823, 48 h
[1] = Cytotoxicity against human PC-3MIE8 cells after 48 hrs by MTT assay; settings: PC-3MIE8, 48 h
HeLa = test: Cytotoxicity against human HeLa cells after 48 hrs by MTT assay
HL-60 = test: Cytotoxicity against human HL60 cells after 48 hrs by MTT assay; settings: HL-60, 48 h
Bel-7402 = test: Cytotoxicity against human Bel7402 cells after 48 hrs by MTT assay; settings: Bel-7402, 48 h
[2] = Cytotoxicity against human […] cells after 48 hrs by MTT assay

What does the source list for `CC(/C=C/C=C(\C)c1ccc(C)c(=O)o1)=C1/C(=O)C[C@H]2[C@@]3(C)CCC(=O)C(C)(C)[C@@H]3CC[C@]12C` [STELLETTIN B]?
IC50 (BGC-823): > 5 mg/L; IC50 [1]: > 5 mg/L; IC50 (HeLa): > 5 mg/L; IC50 (HL-60): 0.2 mg/L (≈ 0.432 µM); IC50 (Bel-7402): > 5 mg/L; IC50 [2]: > 5 mg/L

For `COC(=O)/C(C)=C/C=C/C(C)=C/C=C/C(C)=C1\C(=O)C[C@H]2[C@@]3(C)CCC(=O)C(C)(C)[C@@H]3CC[C@]12C` [STELLETTIN E METHYL ESTER], which IC50 (BGC-823) is on record?
Its IC50 is > 5 mg/L.

And the IC50 [1]?
The IC50 was > 5 mg/L.

What about the IC50 (HeLa) of the same molecule?
The IC50 was > 5 mg/L.

And the IC50 (HL-60)?
Its IC50 is 4.2 mg/L (≈ 8.77 µM).

And the IC50 (Bel-7402)?
Its IC50 is > 5 mg/L.

And the IC50 [2]?
Its IC50 is > 5 mg/L.

Which results are given for `CC(/C=C/C=C(C)/C=C/C=C(\C)C(=O)O)=C1/C(=O)C[C@H]2[C@@]3(C)CCC(=O)C(C)(C)[C@@H]3CC[C@]12C` [STELLETIN E]?
IC50 (BGC-823): > 5 mg/L; IC50 [1]: > 5 mg/L; IC50 (HeLa): > 5 mg/L; IC50 (HL-60): > 5 mg/L; IC50 (Bel-7402): > 5 mg/L; IC50 [2]: > 5 mg/L

For `CC(/C=C/C=C(\C)C(=O)O)=C\C=C\C(C)=C1\C(=O)C[C@H]2[C@@]3(C)CCC(=O)C(C)(C)[C@@H]3CC[C@]12C` [RHABDASTRELLIC ACID A], which IC50 (BGC-823) is on record?
Its IC50 is > 5 mg/L.

And the IC50 [1]?
Its IC50 is > 5 mg/L.

What about the IC50 (HeLa) of the same molecule?
Its IC50 is > 5 mg/L.

And the IC50 (HL-60)?
Its IC50 is > 5 mg/L.

What about the IC50 (Bel-7402) of the same molecule?
The IC50 was > 5 mg/L.

And the IC50 [2]?
Its IC50 is > 5 mg/L.

Which IC50 (BGC-823) does the source give for `CC(=O)/C=C\C(=O)/C(C)=C/C=C/C(C)=C1\C(=O)C[C@H]2[C@@]3(C)CCC(=O)C(C)(C)[C@@H]3CC[C@]12C` [ISOGEODITIN A] here?
The IC50 was 0.47 mg/L (≈ 1.04 µM).

And the IC50 [1]?
Its IC50 is 0.07 mg/L (≈ 0.155 µM).

What about the IC50 (HeLa) of the same molecule?
The IC50 was 0.35 mg/L (≈ 0.777 µM).

What about the IC50 (HL-60) of the same molecule?
Its IC50 is 0.13 mg/L (≈ 0.288 µM).

And the IC50 (Bel-7402)?
Its IC50 is 3.7 mg/L (≈ 8.21 µM).

And the IC50 [2]?
The IC50 was 1.2 mg/L (≈ 2.66 µM).

Which IC50 (BGC-823) does the source give for `CC(=O)/C=C\C(=O)/C(C)=C/C=C/C(C)=C1/C(=O)C[C@H]2[C@@]3(C)CCC(=O)C(C)(C)[C@@H]3CC[C@]12C` here?
Its IC50 is > 5 mg/L.

What about the IC50 [1] of the same molecule?
Its IC50 is > 5 mg/L.

What about the IC50 (HeLa) of the same molecule?
Its IC50 is > 5 mg/L.

And the IC50 (HL-60)?
The IC50 was > 5 mg/L.

And the IC50 (Bel-7402)?
The IC50 was > 5 mg/L.

What about the IC50 [2] of the same molecule?
The IC50 was > 5 mg/L.

What does the source list for `COC(=O)/C(C)=C/C=C/C(C)=C/C=C/C(C)=C1/C(=O)C[C@H]2[C@@]3(C)CCC(=O)C(C)(C)[C@@H]3CC[C@]12C` [RHABDASTRELLIC ACID A METHYL ESTER]?
IC50 (BGC-823): > 5 mg/L; IC50 [1]: > 5 mg/L; IC50 (HeLa): > 5 mg/L; IC50 (HL-60): > 5 mg/L; IC50 (Bel-7402): > 5 mg/L; IC50 [2]: > 5 mg/L

For `CC(=O)/C=C\C(=O)/C(C)=C/C=C/C(C)=C1\C(=O)C[C@H]2[C@@]3(C)CC[C@H](OC(C)=O)C(C)(C)[C@@H]3CC[C@]12C` [ISOGEODITIN B], which IC50 (BGC-823) is on record?
The IC50 was 2.2 mg/L (≈ 4.45 µM).

What about the IC50 [1] of the same molecule?
The IC50 was 3.4 mg/L (≈ 6.87 µM).

And the IC50 (HeLa)?
The IC50 was 3 mg/L (≈ 6.06 µM).

And the IC50 (HL-60)?
Its IC50 is 0.5 mg/L (≈ 1.01 µM).

And the IC50 (Bel-7402)?
The IC50 was 3.9 mg/L (≈ 7.88 µM).

What about the IC50 [2] of the same molecule?
The IC50 was 2.2 mg/L (≈ 4.45 µM).

For `CC(=O)/C=C/C(=O)/C(C)=C/C=C/C(C)=C1\C(=O)C[C@H]2[C@@]3(C)CC[C@H](OC(C)=O)C(C)(C)[C@@H]3CC[C@]12C` [GEODITIN B], which IC50 (BGC-823) is on record?
The IC50 was > 5 mg/L.

And the IC50 [1]?
Its IC50 is > 5 mg/L.

And the IC50 (HeLa)?
The IC50 was > 5 mg/L.

And the IC50 (HL-60)?
Its IC50 is > 5 mg/L.

And the IC50 (Bel-7402)?
Its IC50 is > 5 mg/L.

And the IC50 [2]?
The IC50 was > 5 mg/L.

Which results are given for `C\C(=C/C=C/C(C)=C1/C(=O)C[C@H]2[C@@]3(C)CCC(=O)C(C)(C)[C@@H]3CC[C@]12C)c1ccc(C)c(=O)o1` [STELLETIN A]?
IC50 (BGC-823): > 5 mg/L; IC50 [1]: > 5 mg/L; IC50 (HeLa): > 5 mg/L; IC50 (HL-60): > 5 mg/L; IC50 (Bel-7402): > 5 mg/L; IC50 [2]: > 5 mg/L

For `CC1=CC[C@@H](/C(C)=C/C=C/C(C)=C2\C(=O)C[C@H]3[C@@]4(C)CCC(=O)C(C)(C)[C@@H]4CC[C@]23C)OC1=O` [22,23-DIHYDROSTELLETTIN B], which IC50 (BGC-823) is on record?
The IC50 was > 5 mg/L.

And the IC50 [1]?
The IC50 was > 5 mg/L.

And the IC50 (HeLa)?
The IC50 was > 5 mg/L.

And the IC50 (HL-60)?
Its IC50 is > 5 mg/L.

What about the IC50 (Bel-7402) of the same molecule?
Its IC50 is > 5 mg/L.

And the IC50 [2]?
Its IC50 is > 5 mg/L.

Which IC50 (BGC-823) does the source give for `CC(=O)O[C@H]1CC[C@@]2(C)[C@@H](CC[C@]3(C)\C(=C(C)/C=C/C=C(\C)c4ccc(C)c(=O)o4)C(=O)C[C@@H]23)C1(C)C` [STELLETTIN C] here?
The IC50 was > 5 mg/L.

What about the IC50 [1] of the same molecule?
Its IC50 is 3.1 mg/L (≈ 6.12 µM).

And the IC50 (HeLa)?
Its IC50 is > 5 mg/L.

What about the IC50 (HL-60) of the same molecule?
The IC50 was > 5 mg/L.

What about the IC50 (Bel-7402) of the same molecule?
Its IC50 is > 5 mg/L.

And the IC50 [2]?
Its IC50 is > 5 mg/L.

For `COc1cc2c(c(OC)c1OC)-c1ccc(OC)c(=O)cc1[C@@H](NC(C)=O)CC2` [COLCHICINE], which IC50 (BGC-823) is on record?
Its IC50 is 0.6 mg/L (≈ 1.5 µM).

What about the IC50 [1] of the same molecule?
The IC50 was 0.7 mg/L (≈ 1.75 µM).

And the IC50 (HeLa)?
Its IC50 is 0.1 mg/L (≈ 0.25 µM).

What about the IC50 (HL-60) of the same molecule?
Its IC50 is 1.6 mg/L (≈ 4.01 µM).

And the IC50 (Bel-7402)?
The IC50 was 0.3 mg/L (≈ 0.751 µM).

What about the IC50 [2] of the same molecule?
Its IC50 is 0.2 mg/L (≈ 0.501 µM).

For `CC(=O)/C=C/C(=O)/C(C)=C/C=C/C(C)=C1\C(=O)C[C@H]2[C@@]3(C)CCC(=O)C(C)(C)[C@@H]3CC[C@]12C` [GEODITIN A], which IC50 (BGC-823) is on record?
The IC50 was > 5 mg/L.

And the IC50 [1]?
Its IC50 is > 5 mg/L.

What about the IC50 (HeLa) of the same molecule?
The IC50 was > 5 mg/L.

And the IC50 (HL-60)?
The IC50 was > 5 mg/L.

And the IC50 (Bel-7402)?
Its IC50 is > 5 mg/L.

What about the IC50 [2] of the same molecule?
The IC50 was > 5 mg/L.
